From article PMC6270011, “Design and Synthesis of Arylthiophene-2-Carbaldehydes via Suzuki-Miyaura Reactions and Their Biological Evaluation” (Molecules, 2013)
Values after ≈ are worked out from the molar mass of the structure shown. Read-outs that look alike come from different tables or passages of the source.

Tests used:
[1] = Nitric oxide (NO) scavenging assay; type: biochemical
Text: Nitric oxide (NO) is a free radical causing inflammatory disorders and cancer in the human body when sodium nitroprusside decomposes to produce nitric oxide. The antioxidant activity of various thiophene derivatives has been reported in the literature and it has also been observed that compounds with high antioxidant activity served as antitumor agents. The newly synthesized compounds reacted directly with nitric oxide and inhibited nitrite formation in an excellent way.
The reaction mixtures comprising sample solution (2 µL), phosphate buffer (17 µL) and sodium nitroprusside (20 µL) were incubated at 37 °C for 2 h in well plates. Then Griess reagent (20 µL, 0.3% sulphanilic acid in glacial acetic acid + 0.1% naphthylethylenediamine (NED): equal volumes of both solutions mixed just before use) was added to each well plate and the mixture kept at room temperature for 20 min to develop the color. The absorbance was measured at 528 nm by using an ELISA reader. The results were processed using Gen 5 software. All the reactions were performed in triplicate. Positive control (containing known antioxidant) and control (containing all samples) were run in parallel. Negative control was used to calibrate the instrument. The % age antioxidant activity was determined by using the following formula: % antioxidant activity = [(Absorbance of control − absorbance of sample)/(Absorbance of control)] × 100

[2] = test system: human red blood cells (erythrocytes); type: cell-based
Method: Three mL of freshly obtained human blood was placed in heparinized tubes to avoid coagulation, gently mixed and poured into a sterile 15 mL Falcon tube and centrifuged for 5 min at 1,000 ×g. The supernatant was discarded and red blood cells were washed three times with chilled (4 °C) sterile isotonic phosphate buffer saline pH 7.4 (5 mL). Erythrocytes (10^8 cells/mL) were maintained for each assay by dilution with phosphate buffer saline. Erythrocytes were counted on a heamacytometer. Twenty µL of each compound was mixed with red blood cells suspension (180 μL) separately. The samples were incubated at 37 °C for 35 min. The samples were placed on ice for 5 min and then agitated at 1,000 ×g for 5 min. Supernatant (100 µL) were taken from each tube and diluted 10 times with chilled (4 °C) phosphate buffered saline. Triton X-100 (0.1% v/v) was taken as a positive control and PBS was negative control and then subjected to the same process. […] The percentage RBSs lyses for each sample was calculated.

Escherichia coli = assay: Antibacterial activity (disc / inhibition zone) against Escherichia coli; conditions: read-out: Inhibition zone, E.coli
Salmonella typhi = assay: Antibacterial activity (disc / inhibition zone) against Salmonella typhi; conditions: Salmonella enterica; for zone of inhibition at 25 µg/mL / zone of inhibition at 50 µg/mL: read-out: Inhibition zone, S. typhi
Bacillus subtilis = assay: Antibacterial activity (disc / inhibition zone) against Bacillus subtilis; conditions: read-out: Inhibition zone, B. subtilis
Shigella dysenteriae = assay: Antibacterial activity (disc / inhibition zone) against Shigella dysenteriae; conditions: read-out: Inhibition zone, S. dysenteriae
Staphylococcus aureus = assay: Antibacterial activity (disc / inhibition zone) against Staphylococcus aureus; conditions: read-out: Inhibition zone, S. aureus
Pseudomonas aeruginosa = assay: Antibacterial activity (disc / inhibition zone) against Pseudomonas aeruginosa; conditions: for zone of inhibition at 25 µg/mL / zone of inhibition at 50 µg/mL: read-out: Inhibition zone, P. aeruginosa; for IC50: read-out: IC50 against Pseudomonas aeruginosa
[3] = 25 µg/mL, read-out: % Activity at 25 µg (NO scavenging)
[4] = 50 µg/mL, read-out: % Activity at 50 µg (NO scavenging)
[5] = 100 µg/mL, read-out: % Activity at 100 µg (NO scavenging)
[6] = human erythrocytes, 37 °C, 35 min

Molecule | inhibition [1, 3] [%] | inhibition [1, 4] [%] | inhibition [1, 5] [%] | Haemolytic activity, in words [2] | Haemolytic activity, percentage of lysis (Average ± SD) [2, 6] [%] | melting point [°C] | zone of inhibition at 25 µg/mL (Escherichia coli) [mm] | zone of inhibition at 50 µg/mL (Escherichia coli) [mm] | zone of inhibition at 25 µg/mL (Salmonella typhi) [mm] | zone of inhibition at 50 µg/mL (Salmonella typhi) [mm] | zone of inhibition at 25 µg/mL (Bacillus subtilis) [mm] | zone of inhibition at 50 µg/mL (Bacillus subtilis) [mm] | zone of inhibition at 25 µg/mL (Shigella dysenteriae) [mm] | zone of inhibition at 50 µg/mL (Shigella dysenteriae) [mm] | zone of inhibition at 25 µg/mL (Staphylococcus aureus) [mm] | zone of inhibition at 50 µg/mL (Staphylococcus aureus) [mm] | zone of inhibition at 25 µg/mL (Pseudomonas aeruginosa) [mm] | zone of inhibition at 50 µg/mL (Pseudomonas aeruginosa) [mm] | IC50 (Pseudomonas aeruginosa) [µg/mL] | IC50 (NO scavenging) [1] [µg/mL] | other results
COc1ccc(-c2csc(C=O)c2)cc1 [2f, 4-(4-Methoxyphenyl)thiophene-2-carbaldehyde] | 5 ± 0.005 | 10 ± 0.028 | 25 ± 0.005 | highest haemolytic action | 6.083 ± 0.143 | 68 to 70 | 9 ± 0.03 | 8 ± 0.01 | 36 ± 0.01 | 63 ± 0.11 | 24.4 ± 0.03 | 54 ± 0.23 | 42 ± 0.7 | 61.4 ± 0.56 | 34 ± 0.05 | 61.4 ± 0.56 | 34 ± 0.04 | 64 ± 0.04 | – | – | IC50 (Salmonella typhi; read-out: IC50 against Salmonella typhi): 37.9 µg/mL (≈ 174 µM)
O=C1O[C@H]([C@@H](O)CO)C(O)=C1O [Ascorbic Acid, ascorbic acid, reference compound] | 40 ± 0.038 | 61 ± 0.004 | 77 ± 0.001 | – | – | – | – | – | – | – | – | – | – | – | – | – | – | – | – | – | –
[H]/N=C(/N)N[C@H]1[C@H](O)[C@@H](O)[C@H](O[C@@H]2O[C@@H](C)[C@](O)(C=O)[C@H]2O[C@@H]2O[C@@H](CO)[C@H](O)[C@@H](O)[C@@H]2NC)[C@@H](N/C(N)=N\[H])[C@@H]1O [Streptomycin, streptomycin, reference compound] | – | – | – | – | – | – | 29.3 ± 0.002 | 63 ± 0.002 | 33 ± 0.001 | 53 ± 0.001 | 34 ± 0.015 | 53 ± 0.001 | 48 ± 0.05 | 55 ± 0.034 | 15 ± 0.034 | 55 ± 0.03 | 41.5 ± 0.002 | 63 ± 0.002 | 35.2 (≈ 60.5 µM) | – | –
O=Cc1cc(-c2cc(C(F)(F)F)cc(C(F)(F)F)c2)cs1 [2b, 4-(3,5-Bis(trifloromethyl)phenyl)thiophene-2-carbaldehyde] | 10 ± 0.02 | 45 ± 0.001 | 60 ± 0.021 | – | 5.003 ± 0.078 | 95 to 97 | 18 ± 0.13 | – | 33 ± 0.2 | 63 ± 0.25 | 23 ± 0.09 | 59 ± 0.1 | 33 ± 0.05 | 62.4 ± 0.1 | 36.6 ± 0.4 | 62.4 ± 0.1 | 42 ± 0.02 | 67 ± 0.01 | – | 66.6 (≈ 205 µM) | –
N#Cc1cc(-c2csc(C=O)c2)cc(C(F)(F)F)c1 [2d, 3-(5-Formylthiophene-3-yl)-5-(trifloromethyl)benzonitrile] | 12 ± 0.025 | 58 ± 0.01 | 73 ± 0.0028 | lowest haemolytic property | 3.306 ± 0.058 | 252 to 254 | 32.5 ± 0.12 | 40.5 ± 0.19 | 30 ± 0.15 | 64 ± 0.05 | 28.3 ± 0.75 | 58 ± 0.35 | 35 ± 0.15 | 63 ± 0.31 | 33 ± 0.01 | 63 ± 0.31 | 46 ± 0.02 | 67 ± 0.01 | 29.7 (≈ 106 µM) | 45.6 (≈ 162 µM) | –
Triton X-100 [Triton-X 100, reference compound] | – | – | – | – | – | – | – | – | – | – | – | – | – | – | – | – | – | – | – | – | Haemolytic activity, percentage of lysis (Average ± SD) [2]: 99.824 ± 0.536%
